Values joined by “and” are separate entries in the source; they are usually repeats but may differ in a detail not shown here. Identical values can stand only once.
Tests used:
[1] = test system: bone defects in the skull of rats; assay: Cranial bone defect model with implanted support; type: in vivo; design: key to BMD / BV/TV: =: no difference; N/A: not applicable; *p ≤ 0.05; **p ≤ 0.01; ***p ≤ 0.001
Experimental: The Sprague-Dawley rats are provided by Janvier Labs (Le Genest-Saint-Isle, France) and housed in the PLATAN animal facility of the UPJV. The rats were maintained under a 12-hour day-night cycle, at a temperature of 22±2° C. and 50% humidity.
In order to assess the osteoinductive capacity of the disaccharide via the acceleration of the phenomenon of bone reconstruction and to determine the concentration of the optimal DP2 molecule, and the nature of the most adapted support under the physiological conditions of the fracture consolidation operation (inflammatory reaction, cellular activity), 2 bone defects were made in the skull of rats.
Three different types of supports were tested and two different concentrations of DP2.
In order to reduce the number of used rats, two bone defects were made per rat; one defect was left blank and was used as an internal control for each rat. Thus, the support-only group is considered the control of the experiment. […] For the support-only condition, the latter is mixed with sterile saline solution.
After being assigned to one of the 12 groups shown above, the rat was anesthetized using IsoVet (isoflurane) in the mask (5% in the induction and 2 to 3% in maintenance dose). After 5 min, a nociception test was performed by pinching the paw or tail of the animal to check the effectiveness of the anesthesia. On the workstation, a shaving and a disinfection with vetedine were then carried out next to the incision.
A local anesthesia was also carried out with 7 mg/kg of 2% lidocaine (20 mg/mL) diluted to 5 mg/ml.
On the workstation, the incision of the skin with a 15 blade cold scalpel along the midline was performed, followed by the detachment of the subcutaneous tissues. Then, the incision along the midline and the lifting and lateral displacement of the periosteum were made. […] Saline solution was used during the milling steps. The implantation of the support, depending on the group, on the left side was made; the right side, without support, was used as a control to assess the effect of the lesion and the natural repair processes without the presence of support. The periosteum was put back in place and sutured with 7/0 skin suture. The skin was also put back in place and closed with 4/0 skin suture.
The rat was injected with buprenorphine at a dose of 0.05 mg/kg subcutaneously as an analgesic. After awakening, the rat was returned to its conventional housing conditions, by putting 1 rat per cage. The animals were supervised daily and animal welfare monitoring was carried out.

[2] = test system: HOb cells; assay: Calcium assay (pro-calcifying activity, mineralization) on human primary osteoblastic cells; type: cell-based; conditions: for percentage of mineralization of the HOb cells / increase in calcification relative to the mineralizing condition: 14 days; for percentage of mineralization of the HOb cells: mineralizing conditions; for increase in calcification relative to the mineralizing condition: HOb
Experimental: For all experiments, a mouse pre-osteoblastic cell line (MC3T3-E1, ATCC) and human primary osteoblastic cells (HOb, Promocell) were used. The mouse pre-osteoblastic cells were cultured in 75 cm^2 flasks, containing 15 mL of α-MEM medium (M4526, SIGMA) and 10% fetal calf serum (FCS), containing 1% Penicillin/Streptomycin antibiotics and 1% glutamine. Similarly, human HOb cells were cultured in 75 cm 2 flasks containing 15 mL of proliferation medium (Human Osteoblast Proliferation Medium, PromoCell). The cells are maintained in the oven at 37° C., with 5% CO2 and 90% humidity. The medium was changed every three days.
MC3T3-E1 cells were seeded in 6-well plates at 63,700 cells/well to be treated in order to extract RNA or for alkaline phosphatase enzymatic activity assay and in 48-well plates for the calcium assay at 5250 cells/well. The HOb cells were seeded at 182,000 cells/well in 6-well plates for the extraction of RNA or for the alkaline phosphatase enzymatic activity assay; at 15,000 cells/well in 48-well plates for the calcium assay; at 10,000 cells/well in 48-well plates for the MTT test or the WST-1 test and at 100,000 cells/well in 6-well plates for the protein extraction or for the fluorescence.
In order to induce the mineralization, the MC3T3-E1 cells were treated with α-MEM medium containing 5% FCS to which 10 mM of β-glycerophosphate and 50 μg/mL of ascorbic acid are added. The HOb cells were treated with the “Osteoblast mineralization medium” (Promocell). […] After filtration, the cells were treated with the respective media (500 μL per well of the 48-well plate and 2 mL per well of the 6-well plate).
The calcification has also been studied on human osteoblastic cells (Hob, PromoCell, Heidelberg, Germany). They are isolated from femoral trabecular bone tissues.

[3] = Bio-oss support + DP2R2 3 mM vs Bio-oss only, D 14
[4] = Bio-oss support + DP2R2 3 mM vs Bio-oss only, D 29
[5] = Bio-oss support + DP2R2 3 mM vs Bio-oss only, D 63
[6] = Bio-oss support + DP2R2 3 mM vs Bio-oss only, D 91
[7] = Bio-oss support + DP2R2 9 mM vs Bio-oss only, D 14
[8] = Bio-oss support + DP2R2 9 mM vs Bio-oss only, D 29
[9] = Bio-oss support + DP2R2 9 mM vs Bio-oss only, D 63
[10] = Bio-oss support + DP2R2 9 mM vs Bio-oss only, D 91
[11] = Collagen support + DP2R2 3 mM vs Collagen only, D 14
[12] = Collagen support + DP2R2 3 mM vs Collagen only, D 29
[13] = Collagen support + DP2R2 3 mM vs Collagen only, D 63
[14] = Collagen support + DP2R2 3 mM vs Collagen only, D 91
[15] = Collagen support + DP2R2 9 mM vs Collagen only, D 14
[16] = Collagen support + DP2R2 9 mM vs Collagen only, D 29
[17] = Collagen support + DP2R2 9 mM vs Collagen only, D 63
[18] = Collagen support + DP2R2 9 mM vs Collagen only, D 91
[19] = MBCP support + DP2R2 3 mM vs MBCP only, D 14
[20] = MBCP support + DP2R2 3 mM vs MBCP only, D 29
[21] = MBCP support + DP2R2 3 mM vs MBCP only, D 63
[22] = MBCP support + DP2R2 3 mM vs MBCP only, D 91
[23] = MBCP support + DP2R2 9 mM vs MBCP only, D 14
[24] = MBCP support + DP2R2 9 mM vs MBCP only, D 29
[25] = MBCP support + DP2R2 9 mM vs MBCP only, D 63
[26] = MBCP support + DP2R2 9 mM vs MBCP only, D 91

## CCCO[C@H]1OC(CO)[C@@H](O[C@@H]2OC(CO)[C@@H](O)C(O)C2NC(C)=O)C(O)C1OC(C)=O (stereo partly drawn) [DP2, n-propyl, 2-O-acetyl-α-D-Glucopyranoside, 4-O-(2-acetamido-2-deoxy-β-D-glucopyranosyl)]
[1]; [3]
  BMD: =
  BV/TV: =
[1]; [4]
  BMD: =
  BV/TV: =
[1]; [5]
  BMD: =
  BV/TV: =
[1]; [6]
  BMD: =
  BV/TV: =
[1]; [7]
  BMD: =
  BV/TV: =
[1]; [8]
  BMD: =
  BV/TV: =
[1]; [9]
  BMD: =
  BV/TV: =
[1]; [10]
  BMD: =
  BV/TV: =
[1]; [11]
  BMD: ↑*
  BV/TV: =
[1]; [12]
  BMD: =
  BV/TV: =
[1]; [13]
  BMD: =
  BV/TV: =
[1]; [14]
  BMD: =
  BV/TV: =
[1]; [15]
  BMD: =
  BV/TV: =
[1]; [16]
  BMD: =
  BV/TV: =
[1]; [17]
  BMD: =
  BV/TV: =
[1]; [18]
  BMD: =
  BV/TV: =
[1]; [19]
  BMD: =
  BV/TV: =
[1]; [20]
  BMD: ↑*
  BV/TV: =
[1]; [21]
  BMD: ↑*
  BV/TV: =
[1]; [22]
  BMD: ↑***
  BV/TV: =
[1]; [23]
  BMD: =
  BV/TV: =
[1]; [24]
  BMD: ↑*
  BV/TV: =
[1]; [25]
  BMD: ↑***
  BV/TV: =
[1]; [26]
  BMD: ↑*
  BV/TV: =
[1]; collagen+DP2 [3 mM], D14
  bone mineralization: increases the bone mineralization
[1]; rats, 3 months after implantation
  in-vivo toxic effect (survival, infection, hematoma, necrosis at defect sites): does not have any in-vivo toxic effect
[1]; the 2 MBCP+DP2 groups (3 mM, 9 mM), from D29 post-surgery
  bone mineralization relative MBCP alone: increase the bone mineralization
[2]; 30 μM, listed as DP2R0
  percentage of mineralization of the HOb cells: 181.573±9.155%
[2]; 30 μM, listed as DP2R2
  percentage of mineralization of the HOb cells: 137.012±52.452% and 204.472% and 159.03±18.719%
[2]; 15 μM
  increase in calcification relative to the mineralizing condition: 26±10%
[2]; 30 μM
  increase in calcification relative to the mineralizing condition: 40±15%
[2]; 50 μM
  increase in calcification relative to the mineralizing condition: 8±17%
[2]; lower concentrations 5, 7.5 and 10 μM (FIG. 4)
  mineralization of the HOb cells relative to the mineralizing medium alone: decrease in mineralization
